Patent publication US10526325B2, “Bicyclic heterocyclic derivatives” (Merck Patent GmbH, priority 2015, dated 2020)

Columns and labels:
PDHK2 = PDHK2 (Homo sapiens (Human), UniProt Q15119); experiment: Biochemical activity testing of PDHK2: PDC inactivation assay; settings: human rec PDHK2, porcine heart PDC, 5 μM ATP, read-out: IC50 PDHK2 (enzyme assay)
Description: Biochemical Activity Testing of PDHK2: PDC Inactivation Assay
The biochemical activity assay for PDHK2 is based on the inactivation of PDC through phosphorylation by PDHK2. The assay is run in two steps: the enzymatic PDHK2 reaction in which isolated PDC is phosphorylated by PDHK2 with ATP as co-substrate and the PDC activity assay in which pyruvate and NAD are converted to acetyl-CoA and NADH. The PDC activity correlates to the increase in NADH and thereby is detectable directly via the increasing fluorescence signal (Exc 340 nm, Em 450 nm). Inhibition of PDHK2 results in a lower phosphorylation status and thereby a less decrease in activity of PDC and a stronger increase in NADH fluorescence signal.
The PDC inactivation assay is performed in Greiner 384-well microtiter plates and is used for high throughput screen. 4 μl of PDHK2 (human, rec, Carna Bioscience, 10 ng/μl-137 nM final concentration) and PDC (isolated from porcine heart, Sigma-Aldrich, 20 mU/ml final concentration) are incubated in the absence or presence of the test compound (10 dilution concentrations) for 30 min at room temperature in kinase buffer (15 mM potassium phosphate buffer, pH 7.0, 60 mM KCl, 1.5 mM DTT, 2.5 mM MgCl2, 0.0125% (w/v) BSA, 0.125% Pluronic F-68). The kinase reaction is started by the addition of 4 μl ATP substrate solution (fc 5 μM in kinase buffer). After 30 min incubation at 37° C. 40 μl of PDC reaction solution (100 mM Tris/HCl, pH 7.8, 0.5 mM EDTA, 1 mM MgCl2, 50 mM NaF, 0.25 mM Coenzyme A, 5 mM pyruvate, 1 mM NAD, 5 mM DTT, 1 mM thiamine pyrophosphate) is added. The first fluorescence measurement is performed on a Perkin Elmer Envision (Exc 340 nm, Em 450 nm). The reaction is incubated for 45 min at room temperature. Afterwards a second fluorescence measurement is performed and the PDC activity is calculated by the difference between both measurements. As full value for the PDHK2 assay the inhibitor-free PDHK2 reaction is used. The pharmacological zero value used is DCA (Sigma-Aldrich) in a final concentration of 3 mM. The inhibitory values […] were determined using either the program Symyx Assay Explorer® or Condosseo® from GeneData.

[1] = test system: PDH-E1alpha (pSer300) in HEK293T cells; experiment: Cellular immunofluorescence assay, PDH-E1alpha (pSer300) in HEK293T cells; format: cell-based, human; settings: Homo sapiens, HEK-293T, 5 hours incubation, anti-PDH-E1alpha (pSer300) immunofluorescence, read-out: IC50 (cell data)
Procedure: Cellular Assay for Determination of Compound Activities
Compound activities were determined in a cellular immunofluorescence assay. Human HEK293T cells were seeded into black 384-well plates with clear bottom and grown overnight.
Next day, test compounds were added to the wells and the plates incubated for 5 hours. Following this, cells were fixed with formaldehyde, permeabilised and blocked. The primary antibody, Anti-PDH-E1alpha (pSer300), AP1064 (Merck Millipore) was added and incubated overnight in the plate wells. Next, cells were washed and the secondary antibody, Alexa Fluor 488, goat anti-rabbit ab (A-11008, Invitrogen) was added together with Hoechst 33258 (H3569, Invitrogen) and incubated for 1 hour in the plate wells. Finally, cells were washed and the plates were measured on the laser scanning cytometer acumen hci (TTpLabtech).
The raw data were normalized against a pharmacological inhibitor control and dose response curves were generated by plotting the percent effect values using the software package Genedata screener (Genedata).

human PDHK2 (12-407) = human PDHK2 (12-407) (Homo sapiens (Human), UniProt Q15119); experiment: Isothermal titration calorimetry (ITC) binding; settings: ITC at 30° C., pH 7.5
Procedure: Isothermal Titration Calorimetry
ITC measurements were performed with a VP-ITC micro calorimeter (Microcal, LLC/GE Healthcare Bio-Sciences Aft Uppsala, Sweden). In general titrations were performed by titrating the protein (50 μM) to the test compound (5 μM) in 12 μl injections. All binding experiments were carried out at 30° C. In general the test compounds were diluted form DMSO stock solutions into the measurement buffer with a maximum final concentration of 1% DMSO. The measurement buffer was 20 mM HEPES, 135 mM KCl, 1 mM TCEP, 2 mM MgCl2, 15 mM NaH2PO4, pH 7.5. The human PDHK2 (12-407) was produced in E. coli as his-tagged protein and purified by affinity chromatography. The tag was removed by side specific proteolysis. Before titration the protein buffer was changed to the measurement buffer containing the same DMSO concentration as the test compound dilution. ITC data analysis was performed using Origin 7 calorimetry software from the same supplier. For most measurements a binding model of one binding site was assumed. According to the applied mathematical model it is possible to calculate the binding constant (KA), the observed binding enthalpy (ΔH^obs) as well as the stoichiometry (N) of the formed complex.
Preceding analysis the raw data was corrected for the heats of dilution by extrapolating from the saturation value from the end of titration. In order to allow for direct comparison between the respective experimental series and protein preparations the protein concentration was corrected by referencing titrations to a well behaved standard inhibitor. The apparent stoichiometry values defined the fraction of binding competent protein and compensated for relative errors in protein concentration measurements. This corrected protein concentration was used to set up ITC experiment series with test compounds. Any deviations from ideal 1:1 stoichiometry observed here were attributed to errors in compound concentration. This nominal compound concentration was corrected as well to achieve 1:1 stoichiometry in the fit.

| IC50 (PDHK2) [nM] | Kd (human PDHK2 (12-407)) [nM] | Compound | IC50 [1] [nM] |
| --- | --- | --- | --- |
| < 300 | < 300 | C[C@@](O)(C(=O)N1CCc2c(cnn2-c2ccc(Cl)cc2)C1)C(F)(F)F [Compound A1, (2R)-1-[1-(4-chlorophenyl)-6,7-dihydro-4H-pyrazolo[4,3-c]pyridin-5-yl]-3,3,3-trifluoro-2-hydroxy-2-methyl-propan-1-one] | 3000 to 50000 |
| < 300 | < 300 | C[C@@](O)(C(=O)N1CCc2c(cnn2-c2ccccc2)C1)C(F)(F)F [Compound A3, (R)-3,3,3-Trifluoro-2-hydroxy-2-methyl-1-(1-phenyl-1,4,6,7-tetrahydro-pyrazolo[4,3-c]pyridin-5-yl)-propan-1-one] | 300 to 3000 |
| < 300 | < 300 | C[C@@](O)(C(=O)N1CCc2c(cnn2-c2ccc(F)cc2)C1)C(F)(F)F [Compound A4, (R)-3,3,3-Trifluoro-1-[1-(4-fluoro-phenyl)-1,4,6,7-tetrahydro-pyrazolo[4,3-c]pyridin-5-yl]-2-hydroxy-2-methyl-propan-1-one] | 300 to 3000 |
| < 300 | < 300 | C[C@@](O)(C(=O)N1CCc2c(cnn2-c2ccc(F)cc2F)C1)C(F)(F)F [Compound A5, (R)-1-[1-(2,4-Difluoro-phenyl)-1,4,6,7-tetrahydro-pyrazolo[4,3-c]pyridin-5-yl]-3,3,3-trifluoro-2-hydroxy-2-methyl-propan-1-one] | 300 to 3000 |
| 300 to 3000 | < 300 | C[C@@](O)(C(=O)N1CCc2nn(-c3ccc(F)cc3F)cc2C1)C(F)(F)F [Compound A6, (R)-1-[2-(2,4-Difluoro-phenyl)-2,4,6,7-tetrahydro-pyrazolo[4,3-c]pyridin-5-yl]-3,3,3-trifluoro-2-hydroxy-2-methyl-propan-1-one] | 3000 to 50000 |
| < 300 | < 300 | CC(C)(C)n1ncc2c1CCN(C(=O)[C@@](C)(O)C(F)(F)F)C2 [Compound A7, (R)-1-(1-tert-Butyl-1,4,6,7-tetrahydro-pyrazolo[4,3-c]pyridin-5-yl)-3,3,3-trifluoro-2-hydroxy-2-methyl-propan-1-one] | 300 to 3000 |

| Compound | IC50 (PDHK2) [nM] | Kd (human PDHK2 (12-407)) [nM] | IC50 [1] [nM] |
| --- | --- | --- | --- |
| CC(C)(C)n1cc2c(n1)CCN(C(=O)[C@@](C)(O)C(F)(F)F)C2 [Compound A8, (R)-1-(2-tert-Butyl-2,4,6,7-tetrahydro-pyrazolo[4,3-c]pyridin-5-yl)-3,3,3-trifluoro-2-hydroxy-2-methyl-propan-1-one] | 300 to 3000 | 300 to 3000 | 3000 to 50000 |
| CC1CN(C(=O)[C@@](C)(O)C(F)(F)F)Cc2cnn(-c3ccc(Cl)cc3)c21 (stereo partly drawn) [Compound A9, (2R)-1-[1-(4-chlorophenyl)-7-methyl-6,7-dihydro-4H-pyrazolo[4,3-c]pyridin-5-yl]-3,3,3-trifluoro-2-hydroxy-2-methyl-propan-1-one] | < 300 | < 300 | < 300 |
| C[C@@H]1CN(C(=O)[C@@](C)(O)C(F)(F)F)Cc2cnn(-c3ccc(Cl)cc3)c21 [Compound A10, (R)-1-[(R)-1-(4-Chloro-phenyl)-7-methyl-1,4,6,7-tetrahydro-pyrazolo[4,3-c]pyridin-5-yl]-3,3,3-trifluoro-2-hydroxy-2-methyl-propan-1-one] | < 300 | < 300 | < 300 |
| C[C@@](O)(C(=O)N1CCc2c(ncn2-c2ccc(F)cc2)C1)C(F)(F)F [Compound A44, (R)-3,3,3-Trifluoro-1-[1-(4-fluoro-phenyl)-1,4,6,7-tetrahydro-imidazo[4,5-c]pyridin-5-yl]-2-hydroxy-2-methyl-propan-1-one] | 300 to 3000 | – | 3000 to 50000 |
| C[C@@](O)(C(=O)N1CCc2c(ncn2-c2ccc(Cl)cc2)C1)C(F)(F)F [Compound A45, (R)-1-[1-(4-Chloro-phenyl)-1,4,6,7-tetrahydro-imidazo[4,5-c]pyridin-5-yl]-3,3,3-trifluoro-2-hydroxy-2-methyl-propan-1-one] | 300 to 3000 | – | 3000 to 50000 |
